# According to patent US20260055118A1, “VISIBLE LIGHT SENSITIVE PHOTOREMOVABLE PROTECTING GROUPS, PREPARATION PROCESS THEREOF, PHOTOACTIVATABLE CONJUGATES COMPRISING THEM AND USES THEREOF” (HUN-REN TERMÉSZETTUDOMÁNYI KUTATÓKÖZPONT, priority 2022, published 2026):
# Assays:
# SK-OV-3 cells = test: Live cell confocal fluorescence imaging (cell permeability, colocalization); type: cell-based, human; details: live SK-OV-3 cells, confocal microscopy
# Method: SKOV3 (ATCC HTB-77) cells were maintained in McCoy's 5A (Modified) Medium, HEPES (Gibco 22330021) media supplemented with 10% FBS (Gibco 10500-064), 1% penicillin-streptomycin (Gibco 15140-122). The cells were cultured at 37° C. in a 5% CO2 atmosphere and passaged—using trypsin (Gibco 25300-054)—every 3-4 days up to 20 passages.
# SKOV3 ([…]) cells were transferred into μ-Slide 8 well plates (Ibidi 80827) and were incubated for 40 h at 37° C. in a 5% CO2 atmosphere. After 30 min treatment with compounds X1′-SN38 and X2′—SN38 in the concentration of 1 μM and in some cases in combination with 1 nM MitoTracker Deep Red FM (Invitrogen M22426) or 1 nM LysoTracker Deep red (Invitrogen L12492) or 50 nM MitoTracker Red FM (Invitrogen M22425) or 50 nM LysoTracker red DND-99 (Invitrogen L7528). The samples were subjected to microscopy analyses. […]
# Due to their high fluorescence, the cell permeability of compounds X1′-SN38 and X2′-SN38 were tested in live SK—OV-3 (human ovarian carcinoma) cells using confocal microscopy. […] The decrease of fluorescence (related to the photolysis reaction) was only observed in the irradiated area. Overall, these experiments serve as evidence for the cell permeability, biocompatibility and excellent ability of this invention to determine the localization of the photoactivatable conjugates via fluorescence microscopy.
# [1] = Spectroscopic properties of the target conjugates in PBS; type: physicochemical
# Method: All starting materials were obtained from commercial suppliers and used without further purification. Analytical thin-layer chromatography (TLC) was performed on silica gel 60 F254 precoated aluminum TLC plates from Merck. Flash column chromatography was performed on Teledyne Isco CombiFlash® Rf+ automated flash chromatographer with silica gel (25-40 μm) from Zeochem. NMR spectra were recorded on a Varian Inova 500 MHz spectrometer. Chemical shifts (δ) are given in parts per million (ppm) using solvent signals or TMS as the reference. Coupling constants (J) are reported in Hertz (Hz). Analytical RP-HPLC-UV/Vis-MS measurements were employed using a Shimadzu LCMS-2020 instrument applying a Gemini C18 column (100×2.00 mm I.D.) in which the stationary phase is […] with a pore size of 110 Å. The chromatograms were detected by a UV-Vis diode array (190-800 nm) and an ESI-MS detector. The following linear gradient elution profile was applied, 0 min 0% B; 6.5 min 100% B; 7 min 0% B; 8 min. 0% B) with eluent A (2% HCOOH, 5% MeCN and 93% water) and B (2% HCOOH, 80% MeCN and 18% water) at a flow rate of 1.0 mL min-1 at 30° C. The samples were dissolved in MeCN—water mixtures. Spectroscopic measurements were performed on a Jasco FP 8300 spectrofluorometer. Quartz cuvettes with path length of 1 cm were used.
# The spectroscopic properties of the target conjugates were determined in PBS. […] Compounds with Q=O have absorption bands in the green-yellow region while Q=CMe2 derivatives absorb in the red (up to 700 nm). All of the compounds have moderate to high absorption coefficients and significant fluorescence. The spectroscopic details can be found in Table 1. In the table, λmax means absorption maximum; λem means fluorescence emission maximum; s means molar absorption coefficient (at the absorption maximum).
compound,measurement,setting,value
CCc1c2c(nc3ccc(OC(=O)N(C)CCN(C)C(=O)OC(C)c4c5ccc(=[N+]6CCCC6)cc-5oc5cc(N6CCCC6)ccc45)cc13)-c1cc3c(c(=O)n1C2)COC(=O)C3(O)CC.[I-] (mixture of isomers) [X1′-SN38],cell permeability,SK-OV-3 cells,cell permeable
same,λem (fluorescence emission maximum),[1],594 nm
same,λmax (absorption maximum),[1],575 nm
same,ε (molar absorption coefficient),[1]; at the absorption maximum,61 200 M^−1cm^−1
